Test results taken from ChEMBL document CHEMBL4387791, “Bioactive Polyketide Derivatives from the Mangrove-Derived Fungus Daldinia eschscholtzii HJ004” (J Nat Prod, 2019).
Activity calls are given as the source filed them. No cut-off for these calls is given here.

Columns and labels:
[1] = system: Staphylococcus epidermidis; assay: Antibacterial activity against Staphylococcus albus ATCC 8032 by microplate assay method; format: functional, organism-based
Vibrio alginolyticus = assay: Antibacterial activity against Vibrio alginolyticus ATCC 17802 by microplate assay method; format: functional, organism-based
Staphylococcus aureus [2] = assay: Antibacterial activity against Staphylococcus aureus ATCC 25923 by microplate assay method; format: functional, organism-based
[3] = Inhibition of Saccharomyces cerevisiae alpha-glucosidase using PNP-G as substrate incubated for 20 mins followed by substrate addition
Staphylococcus aureus [4] = assay: Antibacterial activity against methicillin-resistant Staphylococcus aureus ATCC 33591 by microplate assay method; format: functional, organism-based
Vibrio parahaemolyticus = assay: Antibacterial activity against Vibrio parahaemolyticus ATCC 17749 by microplate assay method; format: functional, organism-based

Structure (SMILES)	Activity [1]	Activity (Vibrio alginolyticus)	Activity (Staphylococcus aureus [2])	IC50 [3]	Activity (Staphylococcus aureus [4])	Activity (Vibrio parahaemolyticus)
Cc1cc2c(c(O)c1C)C(=O)C[C@@H](O)[C@H]2O (relative stereo)	inactive	inactive	inactive	21 µM	inactive	inactive
COc1cccc2c1[C@H](O)CCC2=O	inactive	inactive	inactive	90 µM	inactive	inactive
CC(=O)OC/C=C(\C)[C@@H]1OC(=O)C(C)(C)[C@@H](O)[C@H]1C	inactive	inactive	inactive	240 µM	inactive	inactive
COc1cc(O)cc2oc(C)c(C)c(=O)c12	inactive	inactive	inactive	13 µM	inactive	inactive
C[C@H]1O[C@H](O[C@H]2[C@H](O)[C@@H](O)[C@@H](O[C@H]3[C@H](O)[C@@H](O)C(O)O[C@@H]3CO)O[C@@H]2CO)[C@H](O)[C@@H](O)[C@@H]1N[C@H]1C=C(CO)[C@@H](O)[C@H](O)[C@H]1O (stereo partly specified) [ACARBOSE]	–	–	–	3 µM	–	–
CCCc1cc(=O)c2c(OC)cccc2o1	inactive	inactive	inactive	84 µM	inactive	inactive
CCc1c(OC)cc2c(c1O)C(=O)[C@H](C)[C@@H](C)[C@H]2O	inactive	inactive	inactive	155 µM	inactive	inactive
C/C(=C\CO)[C@@H]1OC(=O)C(C)(C)[C@@H](O)[C@H]1C	inactive	inactive	inactive	20 µM	inactive	inactive
CCc1c(OC)cc2c(c1O)C(=O)[C@H](C)[C@@H](C)[C@@H]2O	inactive	inactive	inactive	35 µM	inactive	inactive
C/C=C(\C)[C@@H]1OC(=O)C(C)(C)[C@@H](O)[C@H]1C	inactive	inactive	inactive	16 µM	inactive	inactive
CCc1ccc2c(c1O)C(=O)[C@](O)(CC)[C@@H](O)C2	inactive	inactive	inactive	38 µM	inactive	inactive
COc1cccc2c1C(=O)CC(C)O2 (stereo unspecified)	inactive	inactive	inactive	15 µM	inactive	inactive
CCc1c(O)cc2c(=O)oc(C)c(C)c(=O)c2c1OC	inactive	inactive	inactive	54 µM	inactive	inactive
C/C=C(\C)[C@@H]1OC(=O)C(C)(C)[C@H](O)[C@H]1C	inactive	inactive	inactive	31 µM	inactive	inactive
O=C1CC[C@H](O)c2cccc(O)c21	inactive	inactive	inactive	70 µM	inactive	inactive
CCc1c(OC)cc2c(=O)c(C)c(C)oc2c1O	inactive	inactive	inactive	100 µM	inactive	inactive
